Laboratory results: the supplement of paper PMC13380429

What was measured:
Settings in all cases: 72 h
HepG2 [1] = assay: drug sensitivity score (DSS) for viability; higher = more toxic; extreme values may be limits of the assay
Vero E6 [2] = assay: as above
Caco-2 [3] = assay: as above
HepG2 [4] = assay: relative viability EC50 (midpoint between 100% and the lowest measured viability); higher = less toxic
Vero E6 [5] = assay: as above
Caco-2 [6] = assay: as above
HepG2 [7] = assay: cell viability relative to DMSO; higher = less toxic
Vero E6 [8] = assay: as above
Caco-2 [9] = assay: as above
U2OS [10] = assay: drug sensitivity score (DSS) for viability; higher = more toxic; extreme values may be limits of the assay
U2OS [11] = assay: relative viability EC50 (midpoint between 100% and the lowest measured viability); higher = less toxic
U2OS [12] = assay: cell viability relative to DMSO; higher = less toxic
Calu-3 [13] = assay: drug sensitivity score (DSS) for viability; higher = more toxic; extreme values may be limits of the assay
Calu-3 [14] = assay: cell viability relative to DMSO; higher = less toxic
Calu-3 [15] = assay: relative viability EC50 (midpoint between 100% and the lowest measured viability); higher = less toxic

| SMILES | drug sensitivity score (HepG2 [1]) | drug sensitivity score (Vero E6 [2]) | drug sensitivity score (Caco-2 [3]) | relative viability EC50 (HepG2 [4]) [µM] | relative viability EC50 (Vero E6 [5]) [µM] | relative viability EC50 (Caco-2 [6]) [µM] | cell viability (HepG2 [7]; 1 nM) [%] | cell viability (HepG2 [7]; 10 nM) [%] | cell viability (HepG2 [7]; 100 nM) [%] | cell viability (HepG2 [7]; 1000 nM) [%] | cell viability (HepG2 [7]; 10000 nM) [%] | cell viability (Vero E6 [8]; 1 nM) [%] | cell viability (Vero E6 [8]; 10 nM) [%] | cell viability (Vero E6 [8]; 100 nM) [%] | cell viability (Vero E6 [8]; 1000 nM) [%] | cell viability (Vero E6 [8]; 10000 nM) [%] | cell viability (Caco-2 [9]; 1 nM) [%] | cell viability (Caco-2 [9]; 10 nM) [%] | cell viability (Caco-2 [9]; 100 nM) [%] | cell viability (Caco-2 [9]; 1000 nM) [%] | cell viability (Caco-2 [9]; 10000 nM) [%] | drug sensitivity score (U2OS [10]) | relative viability EC50 (U2OS [11]) [µM] | cell viability (U2OS [12]; 1 nM) [%] | cell viability (U2OS [12]; 10 nM) [%] | cell viability (U2OS [12]; 100 nM) [%] | cell viability (U2OS [12]; 1000 nM) [%] | cell viability (U2OS [12]; 10000 nM) [%] | drug sensitivity score (Calu-3 [13]) | cell viability (Calu-3 [14]; 1 nM) [%] | cell viability (Calu-3 [14]; 10 nM) [%] | cell viability (Calu-3 [14]; 100 nM) [%] | cell viability (Calu-3 [14]; 1000 nM) [%] | cell viability (Calu-3 [14]; 10000 nM) [%] | relative viability EC50 (Calu-3 [15]) [µM] |
| --- | --- | --- | --- | --- | --- | --- | --- | --- | --- | --- | --- | --- | --- | --- | --- | --- | --- | --- | --- | --- | --- | --- | --- | --- | --- | --- | --- | --- | --- | --- | --- | --- | --- | --- | --- |
| NS(=O)(=O)c1cc(-c2nnn[nH]2)c(NCc2cccs2)cc1Cl [azosemide] | 0 | 0 | 1.6 | > 10 | > 10 | > 10 | 94.5 | 103 | 103 | 95.7 | 89.6 | 103 | 108 | 104 | 106 | 97.1 | 99.4 | 111 | 86.5 | 92.4 | 92.1 |  |  |  |  |  |  |  |  |  |  |  |  |  |  |
| CC1(COc2ccc3c(c2)ncn3-c2ccc3cccc(N4CCC(N)CC4)c3n2)COC1 [crenolanib] | 4.9 | 4.1 | 0 | 3.26 | 3.3 | > 10 | 107 | 103 | 107 | 101 | 9.5 | 102 | 104 | 101 | 102 | 22.6 | 101 | 97.1 | 102 | 112 | 94.5 | 4.9 | 3.26 | 106 | 102 | 106 | 101 | 9.4 |  |  |  |  |  |  |  |
| COC(=O)/C=C/c1cc(O)ccc1O [erbstatin-analog] | 2.5 | 7.6 | 4.1 | 3.37 | 1.41 | 2.37 | 92 | 101 | 99.8 | 102 | 50 | 98.8 | 96.1 | 94.7 | 74.8 | 22.6 | 97.7 | 102 | 91.8 | 94.3 | 40.9 | 3.9 | 2.86 | 101 | 103 | 95.2 | 97.4 | 34.8 | 1.2 | 113 | 97.6 | 106 | 99.2 | 73.3 |  |
| CCOc1ccc2nc3cc(N)ccc3c(N)c2c1 [ethacridine-lactate-monohydrate] | 4.6 | 0 | 0 | 2.82 | > 10 | > 10 | 115 | 131 | 124 | 96.6 | 25.4 | 102 | 101 | 100 | 102 | 97.2 | 97.4 | 104 | 101 | 110 | 95.4 | 1.9 |  | 106 | 105 | 104 | 105 | 55.6 |  |  |  |  |  |  |  |
| CC(=O)O[C@]1(C(C)=O)CC[C@H]2[C@@H]3CCC4=CC(=O)CC[C@]4(C)[C@H]3CC[C@@]21C [hydroxyprogesterone-acetate] | 0 |  | 0 | > 10 |  | > 10 | 98.7 | 95.5 | 110 | 90.3 | 102 |  |  |  |  |  | 95.8 | 98.6 | 90.2 | 104 | 98.9 | 0 | > 10 | 99.2 | 101 | 106 | 99.9 | 98.7 | 0 | 103 | 115 | 91.3 | 95.7 | 93.8 | > 10 |
| CCN(CC)CC(=O)Nc1c(C)cccc1C [lidocaine] | 0 | 0 | 3.6 | > 10 | > 10 | > 10 | 101 | 97.4 | 88.1 | 116 | 107 | 108 | 101 | 105 | 97.8 | 97.9 | 103 | 108 | 90.8 | 80.4 | 97 | 0 | > 10 | 99.7 | 105 | 94.8 | 97.2 | 100 |  |  |  |  |  |  |  |
| Cc1ccc(F)c(NC(=O)Nc2ccc(-c3cccc4[nH]nc(N)c34)cc2)c1 [linifanib] | 12.8 | 0 | 0 | 0.583 | > 10 | > 10 | 94.1 | 110 | 115 | 29.9 | 13.1 | 93.1 | 101 | 99.9 | 103 | 110 | 101 | 100 | 101 | 89.5 | 106 | 0 | > 10 | 97.4 | 96.6 | 101 | 96.5 | 92.2 | 2.7 | 106 | 89.4 | 99.1 | 86.9 | 69.9 |  |
| COC(=O)N1CC[C@@H]2[C@H]1CCC[C@@]2(O)C#Cc1cccc(C)c1 [mavoglurant] | 0 | 0 | 0 | > 10 | > 10 | > 10 | 102 | 107 | 95.5 | 91.8 | 114 | 104 | 101 | 106 | 104 | 97.4 | 110 | 120 | 100 | 98.4 | 108 | 0 | > 10 | 103 | 99.9 | 102 | 101 | 95.8 |  |  |  |  |  |  |  |
| Cc1ccccc1C(OCCN(C)C)c1ccccc1 (configuration not stated) [orphenadrine] | 0 |  | 0 | > 10 |  | > 10 | 102 | 108 | 90.7 | 105 | 109 |  |  |  |  |  | 99.9 | 93.6 | 94.3 | 98.7 | 95.5 | 0 | > 10 | 106 | 97.7 | 95.5 | 97.5 | 97.8 | 0 | 99.5 | 103 | 106 | 102 | 92.9 | > 10 |
| CCCCCCCCCCCCCCCCCCCCCCCCC(=O)O [pentacosanoic-acid] | 0 |  | 0 | > 10 |  | > 10 | 112 | 109 | 98 | 102 | 111 |  |  |  |  |  | 99.2 | 106 | 103 | 96.8 | 101 | 0 | > 10 | 98.3 | 98.5 | 97.4 | 95.9 | 106 | 0 | 91.9 | 97.1 | 92.5 | 92.2 | 102 | > 10 |
| O=C1c2ccccc2C(=O)C1c1ccccc1 [phenindione] | 0 |  | 0 | > 10 |  | > 10 | 89.4 | 110 | 93.7 | 98.5 | 101 |  |  |  |  |  | 88.5 | 89.3 | 99.4 | 94.1 | 101 | 0 | > 10 | 105 | 97.9 | 103 | 99.3 | 102 | 0 | 108 | 85.4 | 100 | 95.2 | 106 | > 10 |
| Cc1ccc(C(=O)Cn2c3c(sc2=N)CCCC3)cc1 [pifithrin-alpha] | 0 | 0 | 0 | > 10 | > 10 | > 10 | 106 | 97.3 | 101 | 100 | 99 | 98.9 | 97.2 | 100 | 98.9 | 96.1 | 102 | 89.9 | 97.1 | 99.3 | 90.1 | 0 | > 10 | 96.6 | 97.5 | 92.9 | 94.4 | 93.5 |  |  |  |  |  |  |  |
| CC(C)c1nc(N(C)S(C)(=O)=O)nc(-c2ccc(F)cc2)c1/C=C/[C@@H](O)C[C@@H](O)CC(=O)O [rosuvastatin] | 0 | 1.1 | 0.3 | > 10 |  | > 10 | 109 | 110 | 98.4 | 106 | 96.1 | 101 | 97.9 | 99.6 | 100 | 72.7 | 103 | 105 | 100 | 101 | 83.7 | 0 | > 10 | 101 | 96.7 | 102 | 99.5 | 98 | 0 | 98.5 | 91.3 | 101 | 105 | 103 | > 10 |
| Cc1ccc(C(=O)Nc2ccc(S(=O)(=O)O)c3cc(S(=O)(=O)O)cc(S(=O)(=O)O)c23)cc1NC(=O)c1cccc(NC(=O)Nc2cccc(C(=O)Nc3cc(C(=O)Nc4ccc(S(=O)(=O)O)c5cc(S(=O)(=O)O)cc(S(=O)(=O)O)c45)ccc3C)c2)c1 [suramin] | 0 |  | 0 | > 10 |  | > 10 | 97.4 | 109 | 102 | 103 | 91.8 |  |  |  |  |  | 93.5 | 94.5 | 99 | 90.9 | 97.5 | 0 | > 10 | 99.9 | 94.7 | 99.4 | 96.7 | 100 | 0 | 96.3 | 101 | 94.8 | 103 | 111 | > 10 |
| CC1(C)S[C@@H]2[C@H](NC(=O)[C@H](C(=O)O)c3ccsc3)C(=O)N2[C@H]1C(=O)O [ticarcillin] | 0 |  | 0 | > 10 |  | > 10 | 106 | 97.3 | 87.7 | 102 | 88.8 |  |  |  |  |  | 103 | 97.6 | 91.1 | 102 | 93.6 | 0 | > 10 | 101 | 100 | 98.6 | 98.1 | 101 | 0 | 91.5 | 106 | 109 | 97.7 | 103 | > 10 |
| Cn1cncc1[C@@](N)(c1ccc(Cl)cc1)c1ccc2c(c1)c(-c1cccc(Cl)c1)cc(=O)n2C [tipifarnib] | 10.6 | 2.5 | 7.8 | 0.532 | > 10 |  | 98.4 | 95.2 | 74.3 | 63.5 | 23.3 | 103 | 94.2 | 95.1 | 82.7 | 76.9 | 86.5 | 90.7 | 80.3 | 73.1 | 59.9 | 6.4 |  | 95.3 | 96.7 | 88.9 | 70.9 | 53.9 | 8.9 | 88.7 | 92.1 | 81.6 | 63.2 | 54.5 |  |
